# Values of other authors as cited in patent US20220160668A1, “FORMULATIONS AND METHODS FOR TREATING CONDITIONS OF THE EYE” (Sight Sciences, Inc., priority 2020, published 2022).
# Settings: antibiotic level of azithromycin (1%)
smiles,measurement,value
CC[C@H]1OC(=O)[C@H](C)[C@@H](O[C@H]2C[C@@](C)(OC)[C@@H](O)[C@H](C)O2)[C@H](C)[C@@H](O[C@@H]2O[C@H](C)C[C@H](N(C)C)[C@H]2O)[C@](C)(O)C[C@@H](C)CN(C)[C@H](C)[C@@H](O)[C@]1(C)O [azithromycin],effect on phase transition temperature of meibum lipids and lipid ordering,can improve the phase transition temperature of meibum lipids and lipid ordering
